Values of other authors, collected in PMC3845828 (Clinical cancer research : an official journal of the …, 2012).

Key:
HMGB-1 binding to RAGE = conditions: in vitro; ref [8]
cancer cells = conditions: pretreatment of cancer cells in vitro, experimental in vivo model; ref [8]
RAGE / S100P = conditions: ref [15]

In the case of “HMGB-1-derived peptide: peptide consisting of residues 150–183 of HMGB-1 (end of the B-box and its linker to the acidic tail) (KLKEKYEKDIAAYRAKGKPDAAKKGVVKAEKSKK; UniProt P09429 150-183, looked up, fragment)”, the “competition with HMGB-1 binding to RAGE” value (HMGB-1 binding to RAGE) is listed as “successfully compete with HMGB-1 binding to RAGE”, the “migration and metastasis of cancer cells pretreated with peptide” value (cancer cells) is listed as “successfully blocked their subsequent migration and their metastasis” and the “binding and activation of RAGE by S100P” value (RAGE / S100P) is listed as “blocked the binding and activation of RAGE by S100P”.
